# Measurements reported in patent publication US12286657B2, “Methods and compositions” (United Kingdom Research and Innovation, priority 2018, dated 2025).
# Assays:
# [1] = tested on: TEDAP (Vlm TE, serine 2463 replaced by DAP); test: depsipeptidyl-TE complex formation with TEDAP (LC-ESI-MS); assay type: biochemical, Streptomyces tsusimaensis; conditions: incubation with TEDAP
# [2] = tested on: PCC1RS/tRNACUA and PCC2RS/tRNACUA pairs; test: amber codon suppression in reporter genes with photocaged-cysteine synthetase pairs; assay type: cell-based; conditions: cells provided with 3 or 4 and the relevant pair
# Source text: Compounds 3 and 4 contain a conservative SH to NH2 substitution relative to photocaged cysteine derivatives that we have previously incorporated into proteins using the PCC1RS/tRNACUA and PCC2RS/tRNACUA pairs, respectively^32. (These pairs were derived from the pyrrolysyl-tRNA synthetase/tRNACUA pair).
# [3] = tested on: HA-tagged Ub; test: ubiquitination test with UBE2L3 variants; assay type: biochemical; conditions: for E2-Ub complex formation: 0.2 μM E1, HA-tagged Ub, E2 loading buffer; for redox sensitivity of complex with Ub: presence of ß-mercaptoethanol
# Experimental: Ubiquitination test with UBE2L3(C86DAP). […] Ub-UBE2L3: Thioester-linked (UBE2L3[wt]) or isopeptidelinked (UBE2L3[C86DAP]) E2-Ub complex.
# In order to test whether UBE2L3(C86DAP5), which had been irradiated with UV light and incubated overnight at 37° C., could be charged with Ub, a reaction containing 0.2 μM E1 and HA-tagged Ub in E2 loading buffer was set up. Each reaction (positive control [wt], negative control [C86A] and [C86DAP]) was performed with and without Ub (see FIG. 23).
# [4] = free amino acid (lysine sidechain; beta amino group of DAP); cited from earlier work
# [5] = tested on: Vlm TEwt; test: LC-ESI-MS analysis of Vlm TE reaction products, TEwt; assay type: biochemical, Streptomyces tsusimaensis; conditions: incubation with Vlm TEwt
# Experimental: (§1) Extracted ion chromatograms (EICs) from HR-LC-ESI-MS of reactions of tetradepsipeptidyl-SNAC 7 (1.7 mM) and Vlm TE (6.5 μM). a, TEwt produces valinomycin as its major product. […] See Supplementary Table 2 for accurate mass analysis and deviations from calculated m/z values of each compound.
# (§2) Purified TEwt or TEDAP at 0.2 mg mL-1 (6.5 μM) was incubated with tetradepsipeptidyl-SNAC 7 (1.7 mM), or a mix of tetradepsipeptidyl-SNAC 7 and deoxytetradepsipeptidyl-SNAC 8 (1.7 mM each) in buffer T. Samples were incubated at room temperature for 24 hours, and then quenched with one volume of 0.1% formic acid in acetonitrile. Next, samples were centrifuged at 20,000 g, flash frozen in liquid nitrogen and stored at −80° C. before HPLC analysis. For HPLC-MS analysis, frozen samples were thawed at room temperature, vortexed and clarified by centrifugation at 20,000 g before injection. HR-LC-ESI-MS was performed at the Mass Spectroscopy Facility (Department of Chemistry, McGill University) with an Agilent XDB-C8 (5 μm, 4.6×150 mm) column in a Dionex Ultimate 3000 UHPLC system coupled to a Bruker maXis impact QTOF mass spectrometer in positive ESI mode. […] Data was analyzed using the Bruker DataAnalysis software and the SmartFormula tool (Bruker).
# [6] = tested on: TEDAP; test: LC-ESI-MS analysis of Vlm TE reaction products, TEDAP; assay type: biochemical, Streptomyces tsusimaensis; conditions: incubation with TEDAP
# Experimental: as §1, §2
# [7] = storage and handling of DAP amino acid 6-TFA; assay type: physicochemical
# Source text: Storage: The dry sample of DAP amino acid 6-TFA was stored in air-tight dark glass vials in a cold, dry and dark environment and was stable for over 3 years without decomposition.
# It is noteworthy that the vial containing 6-TFA taken out from the fridge or freezer was always allowed to warm to r.t. prior to opening and handling.
# [8] = tested on: E. coli; test: LC-MS based amino acid uptake assay (intracellular concentration of DAP derivatives); conditions: addition of 1 mM 6 to cell media
# [9] = tested on: Ub-tev-His6; test: reactions of TEV with Ubtev (SDS-PAGE, western blot); assay type: biochemical; conditions: SDS-PAGE and western blot
# Source text: The use of TEV(wt) results in cleavage of the TEV cleavage sequence. The use of TEV(C151A) results in minimal cleavage. The presence of DAP in the active site of TEV results in the presence of a new band in the coomassie gel, representing the isopeptide-linked TEV(C151DAP)-Ub complex (left). αUb and αStrep western blots of the reactions confirm the identity of the complex (TEV constructs contain a Strep tag). b, Tandem mass spectrometry of isopeptide-linked TEV(C151DAP)-Ub complex. Tandem mass spectrometry unambiguously identifies the DAP modification at the desired site and the expected tev-Gly-Gly modification on the residue, consistent with Ub trapping on DAP.
# Tryptic MS/MS of the slower mobility band identifies the isopeptide linkage between DAP and Ub, confirming formation of the TEVDAP-Ub (FIG. 4b). Therefore, the substitution of the catalytic cysteine in TEV with DAP enables the creation of a protease that goes through the first step of the protease cycle: nucleophilic attack on the substrate carbonyl to form the first tetrahedral intermediate. This intermediate collapses, releasing the C-terminal fragment of the substrate and leaving the N-terminal fragment of the substrate covalently attached to the protease, through a stable amide bond that is not subject to hydrolysis. […]
molecule,measurement,setting,value
"CC(=O)NCCSC(=O)[C@@H](NC(=O)[C@@H](C)OC(=O)[C@@H](NC(=O)CC(C)C)C(C)C)C(C)C (single isomer, unassigned) [deoxy-tetradepsipeptidyl-SNAC 8]",acyl-TEDAP conjugate formation yield,[1],~70%
CC(NC[C@H](N)C(=O)O)c1cc2c(cc1[N+](=O)[O-])OCO2 (some centres unmarked) [Compound 4],suppression of amber codons in reporter genes,[2],did not function to suppress amber codons
"UBE2L3(wt): wild type UBE2L3, positive control",E2-Ub complex formation,[3],higher molecular weight band could be observed
same,redox sensitivity of complex with Ub,[3],redox sensitive
"NC[C@H](N)C(=O)O (stereo in doubt) [Compound 1, 2,3-diaminopropionic acid]",pKa of the conjugate acid of the sidechain amine,[4],9.4
"CC(=O)NCCSC(=O)C(NC(=O)C(C)OC(=O)C(NC(=O)C(O)C(C)C)C(C)C)C(C)C [tetradepsipeptidyl-SNAC 7, HO-D-Hiv-D-Val-L-Lac-L-Val-SNAC]",acyl-TEDAP conjugate formation yield,[1],> 60%
same,valinomycin production,[5],led to production of valinomycin
same,valinomycin synthesis,[6],did not observe valinomycin synthesis
UBE2L3(C86DAP): UBE2L3 with DAP at position 86,E2-Ub complex formation,[3],higher molecular weight band could also be detected
same,redox sensitivity of complex with Ub,[3],redox insensitive
CC(SCCOC(=O)NC[C@H](N)C(=O)O)c1cc2c(cc1[N+](=O)[O-])OCO2 (mixture of isomers) [Compound 6],stable without decomposition on storage,"[7]; dry sample, air-tight dark glass vials, cold, dry and dark environment",over 3 years
same,light and moisture sensitivity on handling,[7]; exposure to moist air,light sensitive and slightly hygroscopic
same,intracellular concentration,[8],approximately 2 mM
N[C@@H](CNCc1ccccc1[N+](=O)[O-])C(=O)O [Compound 3],suppression of amber codons in reporter genes,[2],did not function to suppress amber codons
"CC(C)[C@@H]1NC(=O)[C@H](C)OC(=O)[C@@H](C(C)C)NC(=O)[C@@H](C(C)C)OC(=O)[C@H](C(C)C)NC(=O)[C@H](C)OC(=O)[C@@H](C(C)C)NC(=O)[C@@H](C(C)C)OC(=O)[C@H](C(C)C)NC(=O)[C@H](C)OC(=O)[C@@H](C(C)C)NC(=O)[C@@H](C(C)C)OC1=O [valinomycin, reference compound]",acyl-TEDAP conjugate formation yield,[1],65-100%
TEVDAP: TEV protease with amino acid 1 (DAP) at position 151 (protein) GESLFKGPRDYNPISSTICHLTNESDGHTTSLYGIGFGPFIITNKHLFRRNNGTLLVQSLHGVFKVKNTTTLQQHLIDGRDMIIIRMPKDFPPFPQKLKFREPQREERICLVTTNFQTKSMSSMVSDTSCTFPSSDGIFWKHWIQTKDGQCGSPLVSTRDGFIVGIHSASNFTNTNNYFTSVPKNFMELLTNQEAQQWVSGWRLNADSVLWGGHKVFMSKPEEPFQPVKEATQLMN,outcome of incubation with Ub-tev-His6,[9],formation of a new band
wild-type TEV: wild-type tobacco etch virus protease (protein) GESLFKGPRDYNPISSTICHLTNESDGHTTSLYGIGFGPFIITNKHLFRRNNGTLLVQSLHGVFKVKNTTTLQQHLIDGRDMIIIRMPKDFPPFPQKLKFREPQREERICLVTTNFQTKSMSSMVSDTSCTFPSSDGIFWKHWIQTKDGQCGSPLVSTRDGFIVGIHSASNFTNTNNYFTSVPKNFMELLTNQEAQQWVSGWRLNADSVLWGGHKVFMSKPEEPFQPVKEATQLMN,outcome of incubation with Ub-tev-His6,[9],cleaves Ub-tev-His6
